# According to patent US9726659B2, “CMPF as a biomarker for diabetes and associated methods” (The Governing Council of the University of Toronto, priority 2012, dated 2017):
# Experiments:
# [1] = test system: MIN6 cells; assay: Glucose- and KCl-stimulated insulin secretion in MIN6 cells; assay type: cell-based, murine; settings: 200 uM
# Procedure: LG=2.8 mM glucose, HG=16.7 mM glucose, KCl=16.7 mM glucose+30 mM KCl. *p<0.05.
# Since beta cell failure is a major underlying cause of both GDM and T2D, the effect of increased CMPF on beta cell function was investigated both in vitro and in vivo. Using physiological concentrations of CMPF (20 uM and 200 uM, as observed in our NGT-pregnant and GDM-pregnant samples respectively (FIG. 2)), as well as a vehicle control (EtOH), its effect was studied on glucose-stimulated insulin secretion (GSIS) and insulin secretion in response to direct depolarization using the secretagogue KCl in an immortalized murine beta cell line (MIN6), as well as primary isolated human and murine islets (FIG. 3A). […] Therefore, high physiologically relevant levels of CMPF impair GSIS.
# [2] = test system: mouse islets; assay: Western blotting of treated mouse islets; assay type: cell-based
# Procedure: CMPF-treated and control mouse islets were lysed in RIPA buffer (Cell Signaling, Danvers, Mass., USA) containing protease inhibitor cocktail (Roche, Mississauga, ON, Canada). Lysates were spun at 12,000 rpm and supernatant was loaded onto a 4-15% SDS-PAGE gradient gel (BioRad, Mississauga, ON, Canada) and transferred onto PVDF membrane using a Turbo Blotter (BioRad). The membrane was probed with the corresponding antibodies, and imaged using Kodak Imager 4000pro (Carestream, Rochester, N.Y., USA).
# To determine the mechanism through which CMPF decreases insulin biosynthesis we examined its effect on these key regulators. Under normal conditions, AKT and GSK3β have reciprocal activities. Active pAKT phosphorylates and inactivates GSK3β, preventing phosphorylation of downstream targets (Humphrey et al., 2010). […] FOXO1 is normally sequestered in the cytosol due to phosphorylation by AKT (Kitamura et al., 2005). […] Altered activity of these transcription factors is further confirmed by decreased mRNA levels of key target genes including Inst, transcription factors Pdx1 and Mafa, proinsulin processing enzymes CpE, Pc1 and Pc2, and the glucose transporter Glut2 (Boucher et al., 2006; Kaneto et al. 2008) (FIG. 18a).
# [3] = test system: human islets; assay: Total insulin content in human islets; assay type: cell-based; settings: 200 uM, 24 hrs, vs vehicle
# Procedure: In the absence of apoptosis and necrosis, CMPF must be impairing GSIS by causing beta cell dysfunction. First, the effect of CMPF treatment on insulin biosynthesis was investigated to determine if insulin is available to be released upon stimulation. MIN6, murine and human islets were treated with vehicle control, 20 uM and 200 uM CMPF for 4 hrs (MIN6) or 24 hrs (islets), and total insulin content measured. […] Lower total insulin content may be due to either defective insulin processing from proinsulin to mature insulin, or insufficient insulin transcription. To determine the mechanism through which CMPF is reducing total insulin content, quantitative PCR (qPCR) was performed on RNA that was isolated from murine islets treated with either vehicle control or 200 uM CMPF for 24 hrs.
# [4] = test system: islets from injected mice; assay: Islets isolated from IP injected mice after the OGTT (ex vivo); assay type: in vivo
# Procedure: CD1 mice were injected IP with either vehicle control (black) or CMPF (white). Over the 7-day course of IP injections, mice were monitored for body weight (A), and random-fed blood glucose (B) and plasma insulin (C). […] The lower body weights on day 8 are following a 14-hour fast, immediately prior to the OGTTs. Following 7 consecutive days of CMPF injections, mice were fasted for 14 hrs and OGTTs were performed. […] (n=8 per group, p<0.05).
# To assess the effect of in vivo administration of CMPF directly on the beta cells, the islets were isolated from the 3-day and 7-day IP injected mice immediately following the OGTT. […] The reduced total insulin content corresponded to lower insulin mRNA levels (FIG. 7D, 3-day injected used as representative), consistent with the in vitro studies described herein.
# [5] = test system: mice; assay: Hyperinsulinemic euglycemic clamps after 7 days of IP injections; assay type: in vivo; settings: 7 days IP
# Procedure: A) Schematic illustrating injection and surgical timeline. B) Glucose infusion rate (C) glucose appearance and (D) disappearance rates and (E) glycolytic rate in 7 day CMPF-injected mice compared to vehicle controls (N=4/group). […] Values mean±SEM.
# Hyperinsulinemic euglycemic clamps were performed as previously described (Liu et al., 2012) following 7 days of IP injections with either CMPF or vehicle. Internal and external cannulation was performed on day 3 of the injection protocol.
# As shown in Example 1, elevated plasma CMPF results in glucose intolerance and impaired insulin secretion. […] To more thoroughly examine integrated glucose homeostasis, hyperinsulinemic euglycemic clamps were performed.
smiles,measurement,setting,value
"CCCc1oc(CCC(=O)O)c(C(=O)O)c1C [CMPF, 3-carboxy-4-methyl-5-propyl-2-furanpropanoic acid]",KCl-stimulated insulin secretion,[1]; 4 hour pre-incubation,significantly impairs
same,glucose-stimulated insulin secretion (GSIS),"[1]; 4 hour pre-treatment, vs 20 uM and vehicle",significantly impaired
same,AKT (Ser473) phosphorylation,[2]; 24 hr treatment,significantly impaired
same,GSK3β (Ser9) phosphorylation,[2]; 24 hr treatment,significantly impaired
same,absolute protein levels of PDX1 and FOXO1,[2]; CMPF-treated islets,not significantly different
same,total insulin content,[3],significantly reduced
same,GSIS of isolated islets,[4]; 3 days IP,impaired GSIS
same,insulin mRNA of isolated islets,[4]; 3 days IP,decreased insulin mRNA
same,islet size,[4]; 3 days IP,no significant difference
same,total insulin content of isolated islets,[4]; 3 days IP,decreased total insulin content
same,insulin secretion of isolated islets under high glucose,[4]; 7 days IP,significantly reduced insulin secretion
same,insulin secretion of isolated islets under low glucose,[4]; 7 days IP,significantly increased insulin secretion
same,"glucose appearance, basal",[5],significantly lower
same,"glycolytic rate, response to insulin (post clamp/basal)",[5],no difference
same,insulin appearance post-clamp,[5],significantly reduced
same,glucose infusion rate,[5]; N=4/group,significant reduction
